Publication PMC6639251, “Selective Kinase Inhibition Shows That Bur1 (Cdk9) Phosphorylates the Rpb1 Linker In Vivo” (Molecular and Cellular Biology, 2019)

Assays:
Kin28/Cdk7 (Kin28-IS) = biological target: T1, Kin28/Cdk7 (Kin28-IS) (Saccharomyces cerevisiae, UniProt P06242, V21C/L83G); test: immunoblot of Rpb1 CTD phosphorylation in yeast cells and in nuclear-extract elongation complexes; format: cell-based; details: covalent; engineered hole and cysteine in ATP pocket; 20 uM in cells 15 min 30 C; 250 nM in nuclear extract
T1 construct: allele integrated at the natural chromosomal locus; in living yeast and nuclear extract, part of TFIIH; HA-tagged plasmid form (35 kDa) only for expression test
T1 sequence (P06242 1-306 V21C/L83G): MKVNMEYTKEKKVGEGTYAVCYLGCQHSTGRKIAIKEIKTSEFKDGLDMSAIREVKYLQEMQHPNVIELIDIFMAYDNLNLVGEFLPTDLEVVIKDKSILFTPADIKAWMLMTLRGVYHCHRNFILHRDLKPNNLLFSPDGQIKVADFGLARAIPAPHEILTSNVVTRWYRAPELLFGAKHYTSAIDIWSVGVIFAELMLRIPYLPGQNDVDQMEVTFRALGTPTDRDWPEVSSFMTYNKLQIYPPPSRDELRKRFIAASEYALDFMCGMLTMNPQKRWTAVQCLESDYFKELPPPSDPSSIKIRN

Ctk1/Cdk12 (Ctk1-IS) = biological target: T2, Ctk1/Cdk12 (Ctk1-IS) (Saccharomyces cerevisiae, UniProt Q03957, V197C/F260G); test: immunoblot of Rpb1 CTD Ser2P in yeast cells and in nuclear-extract elongation complexes; format: cell-based; details: covalent; engineered hole and cysteine in ATP pocket; 20 uM in cells 15 min 30 C; 250 nM in nuclear extract
T2 construct: allele integrated at the natural chromosomal locus; in living yeast and nuclear extract; HA3-tagged plasmid form (61 kDa) only for expression test
T2 sequence (Q03957 1-528 V197C/F260G): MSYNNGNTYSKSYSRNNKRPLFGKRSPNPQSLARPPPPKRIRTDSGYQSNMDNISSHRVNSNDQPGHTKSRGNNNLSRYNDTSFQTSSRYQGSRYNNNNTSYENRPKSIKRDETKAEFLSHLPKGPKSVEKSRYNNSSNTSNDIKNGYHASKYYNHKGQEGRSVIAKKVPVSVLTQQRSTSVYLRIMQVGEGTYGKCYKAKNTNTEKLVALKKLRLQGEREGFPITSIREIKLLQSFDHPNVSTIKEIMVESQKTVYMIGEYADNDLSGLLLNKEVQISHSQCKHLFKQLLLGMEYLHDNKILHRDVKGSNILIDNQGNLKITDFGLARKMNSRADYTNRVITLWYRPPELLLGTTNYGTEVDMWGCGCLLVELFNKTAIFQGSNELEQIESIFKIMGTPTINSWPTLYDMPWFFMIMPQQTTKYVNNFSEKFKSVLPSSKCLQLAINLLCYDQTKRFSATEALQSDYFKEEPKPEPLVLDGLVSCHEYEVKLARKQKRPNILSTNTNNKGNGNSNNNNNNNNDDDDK

`Cc1ccc(-c2c(C(=O)CCl)n(CCCO)c3ncnc(N)c23)cc1` [CMK] was tested, and the “immunoblot of Rpb1 CTD phosphorylation in yeast cells and in nuclear-extract elo” value (Kin28/Cdk7 (Kin28-IS)) was “treatment of the Kin28-IS strain with CMK led to a significant drop in CTD Ser5P” and the “immunoblot of Rpb1 CTD Ser2P in yeast cells and in nuclear-extract elongation co” value (Ctk1/Cdk12 (Ctk1-IS)) was 15-min CMK treatment of Ctk1-IS cells caused very strong loss of Ser2P.
